Experiment in all cases: In vitro antibacterial activity (MIC)
Holding throughout (format): cell-based

The subject of experiment [1] is Citrobacter freundii. An excerpt: (§1) The compound of formula I, wherein R^1 is hydrogen, and salts thereof, are active as antibacterial agents of medium potency both in vitro and in vivo, and the compounds of formula I, wherein R^1 is an ester-forming residue readily hydrolyzable in vivo are active as antibacterial agents of medium potency in vivo.
For experiment [2], the system named is Enterobacter aerogenes. The conditions noted are these: Klebsiella aerogenes.
Description: as §1

The subject of experiment [3] is Enterobacter clocae.
Description: as §1

The subject of experiment [4] is Escherichia coli.
Description: as §1

Experiment [5] relates to Hemophilus influenzae. The conditions noted are these: Haemophilus influenzae.
Description: as §1

Experiment [6] relates to Klebsiella pneumoniae.
Description: as §1

The subject of experiment [7] is Neisseria gonorrhoeae.
Description: as §1

For experiment [8], the system named is Pasteurella multocida.
Description: as §1

Experiment [9] relates to Proteus mirabilis.
Description: as §1

Experiment [10] concerns Proteus morgani.
Description: as §1

Experiment [11] has as its system Providencia.
Description: as §1

Experiment [12] relates to Pseudomonas aeruginosa.
Description: as §1

For experiment [13], the system named is Pseudomonas putida.
Description: as §1

Experiment [14] has as its system Salmonella typhimurium. To be noted: Salmonella enterica.
Description: as §1

Experiment [15] has as its system Serratia marcescens.
Description: as §1

Experiment [16] has as its system Staphylococcus aureus.
Description: as §1

In experiment [17] the test system is Staphylococcus epidermis.
Description: as §1

For experiment [18], the system named is Streptococcus faecalis. To be noted: Enterococcus faecalis.
Description: as §1

In experiment [19] the test system is Streptococcus pyogenes.
Description: as §1

Each structure is given as a SMILES string. ≈ marks a conversion by molar mass, not a printed value.

As to `CC1(C)[C@H](C(=O)O)N2C(=O)C[C@H]2S1(=O)=O` [Penicillanic Acid 1,1-Dioxide], the MIC was found to be 50 µg/mL (≈ 214 µM) in [1]; 25 µg/mL (≈ 107 µM) in experiment [2]; 100 µg/mL (≈ 429 µM) in experiment [3]; 50 µg/mL (≈ 214 µM) in experiment [4]; 50 µg/mL (≈ 214 µM) in [5]; 50 µg/mL (≈ 214 µM) in experiment [6]. Further, the MIC in experiment [7] was determined as 0.312 µg/mL (≈ 1.34 µM); in experiment [8], 50 µg/mL (≈ 214 µM); in [9], 100 µg/mL (≈ 429 µM); in experiment [10], 100 µg/mL (≈ 429 µM); in [11], 100 µg/mL (≈ 429 µM); in experiment [12] it was 200 µg/mL (≈ 857 µM). The MIC worked out at 200 µg/mL (≈ 857 µM) in [13]; 50 µg/mL (≈ 214 µM) in experiment [14]; 100 µg/mL (≈ 429 µM) in [15]; 100 µg/mL (≈ 429 µM) in experiment [16]; 200 µg/mL (≈ 857 µM) in [17]; 200 µg/mL (≈ 857 µM) in experiment [18]. The MIC in experiment [19] amounted to 100 µg/mL (≈ 429 µM).

Source of the values: patent publication US4420426A, “6-Alpha-halopenicillanic acid 1,1-dioxides” (Pfizer Inc., priority 1980, dated 1983).
